Experimental data from patent US6762189B1, “5-pyrimidinecarboxamide derivatives and the pharmaceutical compositions containing said derivatives” (Dong Wha Pharm. Ind. Co., Ltd., priority 1999, dated 2004).

How the values were obtained:
HBV polymerase = molecular target: T1, HBV polymerase (Hepatitis B virus genotype A2 subtype adw2, UniProt P03159); assay: In vitro reverse transcription activity of HBV polymerase (ELISA-type, DIG/biotin nucleotides); format: biochemical; details: read-out: Inhibition activity on HBV-RT (%); for inhibition at 0.01 µg/mL: 0.01 μg/ml test compound; for inhibition at 0.1 µg/mL: 0.1 μg/ml test compound; for inhibition at 1 µg/mL: 1 μg/ml test compound
T1 construct: made in house; host or cells: E. coli
Description: The following in vitro experiment was performed to determine the effect of the compounds of formula 1 on the activity of HBV polymerase during reverse transcription.
The present inventors submitted application for a patent concerning HBV polymerase genetically expressed in and separated from E. coli, the process of its preparation, and the method to measure the enzyme activities (KR 94-3918, KR 96-33998). In the present experiments HBV polymerase was used which had been expressed in E. coli as stated above.
The method used in the present invention to measure in vitro reverse transcribing activities of HBV polymerase is as follows. Basic principles are the same as for ELISA. Nucleotides with biotin or digoxigenin group attached are included as substrates and anti-DIG antibodies attached to peroxidase enzyme recognize the polymerized substrates.
To the wells coated with streptavidin, 20 μl of HBV polymerase, 20 μl of reaction mixture (10 μM each of DIG-UTP and Biotin-UTP, 46 mM Tris-HCl, 266 mM KCl, 27.5 mM MgCl2, 9.2 mM DTT substrate/primer hybrid), and 20 μl of test compound (added to 1, 0.1, and 0.01 μg/ml) were added and allowed to react a 22° C. for 15 hrs. During this reaction, HBV polymerase catalyzes DNA synthesis and digoxigenin and biotin attached to nucleotides form bonds with streptavidin coated on the bottom of wells. When the reaction was done, each well was washed with 250μl of cleaning buffer (pH 7.0) for 30 seconds, which was repeated five times to remove remaining impurities. 200 μl of anti-DIG-POD antibody was added to each well and allowed to react for 1 hr at 37° C., and the wells were washed with cleaning buffer to remove impurities. 200μl each of ABTS™, a substrate of peroxidase, was then added and allowed to react at room temperature for 30 min. Absorbance was measured at 405 nm using ELISA reader.
The percentage of reduction in HBV polymerase activities for reverse transcription was calculated using the group without test compound as a control and the results are shown in Table 3.

[1] = molecular target: T2, HIV reverse transcriptase (Human immunodeficiency virus type 1 group M subtype B, UniProt P04585); assay: In vitro HIV reverse transcriptase activity (non-radioactive reverse transcriptase assay kit); format: biochemical; details: for Inhibitory effect on the activities of HIV reverse transcriptase, Inhibition activity on HBV-RT (%): 0.1 μg/ml test compound; for Inhibition of HIV reverse transcriptase activity: 1 μg/ml test compound
T2 construct: activities of HIV reverse transcriptase; purchased Boehringer Mannheim
Description: The following in vitro experiments were done to determine the effect of compounds of formula 1 on the reduction of HIV enzyme activities in reverse transcription.
Non-radioactive reverse transcriptase assay kit (Boehringer Mannheim) was used in the measurement of in vitro transcriptase activities. 20 μl (40 ng) of HIV transcriptase and 20 μl of reaction mixture containing matrix-primer hybrid poly (A) oligo (dT) 15, DIG(digoxigenin)-dUTP, biotin-dUTP, and TTP were added to wells coated with streptavidin. Test compounds were also added at the final concentrations of 0.1 and 1 μg/ml and allowed to react at 37° C. for 1 hr. At this time, DNA is formed from RNA by the action of HIV transcriptase, forming bonds with streptavidin coated on the bottom of wells because of digoxigenin and biotin moieties attached to nucleotides.
When the reaction was completed, each well was washed with 250 μl. of cleaning buffer (pH 7.0) for 30 sec. five times to remove remaining impurities. 200 μl of anti-DIG-POD […] was added to each well, allowed to react at 37° C. for 1 hr and washed as above to remove impurities. 200 μl of ABTS™, a substrate for peroxidase, was added to each well and allowed to react at room temperature for 30min. Absorbance at 405 nm was then read for each solution using ELISA reader and used for quantitative determination of inhibitory effect on the HIV transcriptase activities. The percentage of reduction in the activities of HIV reverse transcriptase was calculated using the group without test compound as control and the results are represented in Table 5.

[2] = Cytotoxicity test on HepG2 cells (MTT); format: cell-based; details: human, read-out: Cytotoxity on HepG2, IC50 (50% Inhibitory Concentration)
HepG2 cells = assay: Cytotoxicity test on HepG2 cells (MTT); format: cell-based
HBV = assay: Inhibition of HBV proliferation in HBV producing cell line HepG 2.2.15 (competitive PCR of culture supernatant); format: cell-based, Hepatitis B virus; details: Hepatitis B virus, HepG2.2.15, 168 h, HepG 2.2.15, one week, read-out: Inhibitory effect on the HBV proliferation, Inhibition activity on HBV-RT (%); for inhibition at 0.01 µg/mL: 0.01 μg/ml; for inhibition at 0.1 µg/mL: 0.1 μg/ml; for inhibition at 1 µg/mL: 1 μg/ml
Description: The following experiment was performed to determine inhibitory effects of compounds of formula on the proliferation of HBV producing cell line.
To test for antiviral effect, replication and proliferation of HBV were measured in HepG 2.2.15, a human liver cancer cell line.
The cell concentration was adjusted to 1×10^5 cells/ml and 1 ml was added to each well of a 24-well cell culture plate, which was then kept in a culture box for 3-4 days at 37° C. under 5% CO2 until cells grew sufficiently, changing culture medium everyday. When the cells matured sufficiently, the test compounds were added to the final concentrations of 0.01, 0.1, and 1 μg/ml. One week after the addition of test compounds, he culture solution was centrifuged at 5,000 rpm for 10 min. 25 μl of supernatant was transferred to a new tube and 5 μl of lysis solution [0.54N NaOH, 0.06% NP40] was added to each tube. After keeping the tube at 37° C. for 1 hr, 30 μl . of neutralizing solution [0.09NHCl, 0.1MTris-HCl, pH7.4] was added as a reaction solution for competitive polymerase chain reaction (PCR).
PCR was performed using genetic sequence of HBV core protein as a matrix. PCR reaction was carried out by adding 1 unit of Taq polymerase enzyme to 25 pmol of each primer, 250 μM dNTP, 5 μl of PCR reaction solution [0.54N NaOH, 0.06% NP40, 0.09N HCl, 0.1M Tris-HCl, pH 7.4].
DNA polymerized by PCR was electrophoresed on Agarose gel and quantitatively analyzed using an image analyzer (Gel Dcc 1000, Bio-Rad) in order to evaluate the effect of compounds of the present invention on the reduction of HBV proliferation.
3TC (lamivudine) was used as a positive control at the same concentrations as those of the test compounds. The percentage of reduction in HBV proliferation was calculated using the group without test compound as a control and the results are represented in Table 4.

T1 sequence (P03159 whole entry): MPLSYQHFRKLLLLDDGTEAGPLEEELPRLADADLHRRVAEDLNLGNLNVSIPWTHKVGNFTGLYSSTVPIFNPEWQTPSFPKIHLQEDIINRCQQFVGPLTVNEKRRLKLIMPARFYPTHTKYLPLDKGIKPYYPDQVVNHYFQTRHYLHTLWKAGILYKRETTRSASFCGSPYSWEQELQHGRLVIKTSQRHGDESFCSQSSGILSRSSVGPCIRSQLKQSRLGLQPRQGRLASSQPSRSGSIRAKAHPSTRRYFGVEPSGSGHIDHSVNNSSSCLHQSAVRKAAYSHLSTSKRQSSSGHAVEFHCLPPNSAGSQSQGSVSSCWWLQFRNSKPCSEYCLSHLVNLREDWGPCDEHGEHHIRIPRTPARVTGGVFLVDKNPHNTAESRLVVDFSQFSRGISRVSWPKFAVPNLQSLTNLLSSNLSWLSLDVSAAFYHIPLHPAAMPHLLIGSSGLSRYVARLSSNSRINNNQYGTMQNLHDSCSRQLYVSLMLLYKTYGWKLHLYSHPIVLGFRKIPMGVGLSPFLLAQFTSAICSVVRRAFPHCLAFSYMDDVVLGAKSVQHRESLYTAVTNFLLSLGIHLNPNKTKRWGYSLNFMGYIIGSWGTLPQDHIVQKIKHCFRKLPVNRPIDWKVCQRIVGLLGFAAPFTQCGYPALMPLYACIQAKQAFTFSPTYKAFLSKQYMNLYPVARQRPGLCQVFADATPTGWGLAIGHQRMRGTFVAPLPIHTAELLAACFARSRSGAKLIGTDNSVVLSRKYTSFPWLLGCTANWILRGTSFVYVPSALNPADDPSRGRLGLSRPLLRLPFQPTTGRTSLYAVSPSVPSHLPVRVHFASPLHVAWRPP

| SMILES | inhibition at 0.01 µg/mL (HBV polymerase) [%] | inhibition at 0.1 µg/mL (HBV polymerase) [%] | inhibition at 1 µg/mL (HBV polymerase) [%] | melting point [°C] | Inhibitory effect on the activities of HIV reverse transcriptase, Inhibition activity on HBV-RT (%) [1] [%] | Inhibition of HIV reverse transcriptase activity [1] [%] | IC50 [2] [µg/mL] | Cytotoxity on HepG2, MCD (Minimal Cytotoxic Concentration) (HepG2 cells) [µg/mL] | inhibition at 0.01 µg/mL (HBV) [%] | inhibition at 0.1 µg/mL (HBV) [%] | inhibition at 1 µg/mL (HBV) [%] |
| --- | --- | --- | --- | --- | --- | --- | --- | --- | --- | --- | --- |
| CSc1ncc(C(=O)NCCN2CCOCC2)c(Nc2ccc3[nH]ncc3c2)n1 [Example 19, 4-(1H-5-indazolylamino)-2-methylthio-N-[2-(4-morpholinyl)ethyl]-5-pyrimidinecarboxamide] | 10 | 39 | 64 | 113 to 117 | 48 | 75 | – | – | – | – | – |
| CSc1ncc(C(=O)NCCO)c(Nc2ccc3cn[nH]c3c2)n1 [Example 8, N-(2-hydroxyethyl)-4-(1H-6-indazolylamino)-2-methylthio-5-pyrimidine Carboxamide] | 50 | 68 | 95 | – | – | – | > 100 | 100 | 40 | 72 | 88 |
| CNC(=O)c1cnc(SC)nc1Nc1ccc2cn[nH]c2c1 [Example 4, 4-(1H-6-Indazolylamino)-N-methyl-2-methylthio-5-pyrimidinecarboxamide] | 52 | 77 | 96 | – | 42 | 70 | > 100 | 100 | 32 | 70 | 94 |
| CSc1ncc(C(=O)NCCN(C)C)c(Nc2ccc3cn[nH]c3c2)n1 [Example 18, N-[2-(dimethylamino)ethyl]-4-(1H-6-indazolylamino)-2-methylthio-5-pyrimidinecarboxamide] | 54 | 66 | 92 | 162 to 167 | 51 | 77 | – | – | 43 | 57 | 88 |
| CSc1ncc(C(=O)N(C)C)c(Nc2ccc3cn[nH]c3c2)n1 [Example 16, N,N-dimethyl-4-(1H-6-indazolylamino)-2-methylthio-5-pyrimidinecarboxamide] | 10 | 30 | 54 | 164 to 166 | 53 | 81 | – | – | – | – | – |
| CNC(=O)c1cnc(SC)nc1Nc1ccc2[nH]ncc2c1 [Example 3, 4-(1H-5-Indazolylamino)-N-methyl-2-methylthio-5-pyrimidine carboxamide] | 34 | 59 | 88 | – | 48 | 62 | > 100 | 100 | 15 | 42 | 75 |
| CSc1ncc(C(=O)NCCCn2ccnc2)c(Nc2ccc3[nH]ncc3c2)n1 [Example 29, N-[3-(1H-1-imidazolyl)propyl]-4-(1H-5-indazolylamino)-2-methylthio-5-pyrimidinecarboxamide] | 41 | 56 | 80 | 121 to 125 | 44 | 72 | – | – | – | – | – |
